We go through four compounds from patent US12180187B2, “1-phenyl-5-azinylpyrazolyl-3-oxyalkyl acids and their use for controlling unwanted plant growth” (BAYER AKTIENGESELLSCHAFT, priority 2019, dated 2024).

The subject of experiment [1] is ALOMY. The experiment is described as follows: Pre-emergence action at 320 g/ha against ALOMY. The format is in vivo, Alopecurus myosuroides. The following applies: scored visually after about 3 weeks vs untreated controls (100% = plants have died). An excerpt:
(§1) b) Seeds of monocotyledonous and dicotyledonous weed plants and crop plants are placed in plastic or organic planting pots and covered with soil. The compounds of the invention, formulated in the form of wettable powders (WP) or as emulsion concentrates (EC), are then applied onto the surface of the covering soil as aqueous suspension or emulsion with addition of 0.5% additive at a water application rate of 600 l/ha (converted). After the treatment, the pots are placed in a greenhouse and kept under good growth conditions for the trial plants. After about 3 weeks, the effect of the preparations is scored visually in comparison with untreated controls as percentages. For example, 100% activity=the plants have died, 0% activity=like control plants. Tables 13 to 26 below show the effects of selected compounds of the general formula (I) on various harmful plants and at an application rate corresponding to 320 g/ha, which were obtained by the experimental procedure mentioned above.

For experiment [2], the system named is LOLRI. As to the kind of experiment: Pre-emergence action at 320 g/ha against LOLRI. The format is in vivo, Lolium rigidum. The following applies: visual scoring after about 3 weeks vs untreated controls.
Source text: as §1

For experiment [3], the system named is SETVI. The experiment is described as follows: Pre-emergence action at 320 g/ha against SETVI. It is filed as in vivo, Setaria viridis. As to conditions: visual scoring after about 3 weeks vs untreated controls.
Source text: as §1

Experiment [4] deals with AMARE. As to the kind of experiment: Pre-emergence action at 320 g/ha against AMARE. The format is in vivo, Amaranthus retroflexus. The following applies: visual scoring after about 3 weeks vs untreated controls.
Source text: as §1

The test system of experiment [5] is MATIN. As to the kind of experiment: Pre-emergence action at 320 g/ha against MATIN. It is filed as in vivo, Tripleurospermum inodorum (Matricaria inodora). The following applies: visual scoring after about 3 weeks vs untreated controls.
Source text: as §1

Experiment [6] relates to VIOTR. The experiment is described as follows: Pre-emergence action at 320 g/ha against VIOTR. It is filed as in vivo, Viola tricolor. The following applies: dosage 320 g/ha.
Source text: as §1

Experiment [7] concerns DIGSA. The experiment is described as follows: Pre-emergence action at 320 g/ha against DIGSA. It is filed as in vivo, Digitaria sanguinalis. The following applies: visual scoring after about 3 weeks vs untreated controls.
Source text: as §1

Experiment [8] has as its system DIGSA. The experiment is described as follows: Pre-emergence action against DIGSA, 1280 g/ha. It is filed as in vivo, Digitaria sanguinalis. The following applies: visual scoring after about 3 weeks vs untreated controls, 100% = plants have died, 0% = like control plants. The method, boiled down:
(§2)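 Visual percent-effect ratings (0% = like control, 100% = plants dead) were taken about 3 weeks after pre-emergence soil-surface application of WP/EC aqueous formulations with 0.5% additive, 600 L water/ha. Seeds were sown in sandy loam and grown in the greenhouse.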

Experiment [9] relates to LOLRI. The experiment is described as follows: Pre-emergence action against LOLRI, 1280 g/ha. It is filed as in vivo, Lolium rigidum. The following applies: visual scoring after about 3 weeks vs untreated controls, 100% = plants have died, 0% = like control plants. A digest of the protocol: as §2
Experiment [10] has as its system POAAN. As to the kind of experiment: Pre-emergence action against POAAN, 1280 g/ha. It is filed as in vivo, Poa annua. The following applies: visual scoring after about 3 weeks vs untreated controls, 100% = plants have died, 0% = like control plants. A digest of the protocol: as §2
The subject of experiment [11] is SETVI. As to the kind of experiment: Pre-emergence action against SETVI, 1280 g/ha. The format is in vivo, Setaria viridis. The following applies: visual scoring after about 3 weeks vs untreated controls, 100% = plants have died, 0% = like control plants. A digest of the protocol:
as §2

Experiment [12] has as its system AMARE. The experiment is described as follows: Pre-emergence action against AMARE, 1280 g/ha. It is filed as in vivo, Amaranthus retroflexus. As to conditions: scored visually after about 3 weeks vs untreated controls (100% = plants have died). A digest of the protocol:
as §2

The subject of experiment [13] is MATIN. The experiment is described as follows: Pre-emergence action against MATIN, 1280 g/ha. The following applies: scored visually after about 3 weeks vs untreated controls (100% = plants have died). It is filed as in vivo, Tripleurospermum inodorum (Matricaria inodora). A digest of the protocol:
as §2

Experiment [14] has as its system STEME. As to the kind of experiment: Pre-emergence action against STEME, 1280 g/ha. It is filed as in vivo, Stellaria media. The following applies: scored visually after about 3 weeks vs untreated controls (100% = plants have died). The method, boiled down: as §2
Experiment [15] deals with VERPE. The experiment is described as follows: Pre-emergence action against VERPE, 1280 g/ha. As to conditions: scored visually after about 3 weeks vs untreated controls (100% = plants have died). It is filed as in vivo, Veronica persica. The method, boiled down: as §2
Experiment [16] deals with ALOMY. As to the kind of experiment: Post-emergence action against ALOMY, 1.28 kg/ha. It is filed as in vivo, Alopecurus myosuroides. As to conditions: dosage 1280 g/ha, visual rating about 3 weeks after treatment vs untreated controls. The method, boiled down:
(§3)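 Herbicidal action is estimated by eye after about three weeks under optimum greenhouse conditions, on a 0–100% scale against untreated plants. Compounds are applied post-emergence to one-leaf-stage weeds as aqueous WP or EC preparations containing 0.5% additive, sprayed at 600 L/ha.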

In experiment [17] the test system is DIGSA. As to the kind of experiment: Post-emergence action against DIGSA, 1.28 kg/ha. It is filed as in vivo, Digitaria sanguinalis. As to conditions: dosage 1280 g/ha, visual rating about 3 weeks after treatment vs untreated controls. A digest of the protocol:
as §3

In experiment [18] the test system is ECHCG. As to the kind of experiment: Post-emergence action against ECHCG, 1.28 kg/ha. The format is in vivo, Echinochloa crus-galli. The following applies: dosage 1280 g/ha, visual rating about 3 weeks after treatment vs untreated controls. The protocol:
(§4) • a) Seeds of mono- and dicotyledonous weed plants are placed in plastic pots in sandy loam soil (twin sowing with one species each of mono- or dicotyledonous weed plants per pot), covered with soil and cultivated in a greenhouse under controlled growth conditions. 2 to 3 weeks after sowing, the test plants are treated at the one-leaf stage. The compounds of the invention, formulated in the form of wettable powders (WP) or as emulsion concentrates (EC), are applied to the green parts of the plants as aqueous suspension or emulsion with addition of 0.5% additive at a water application rate equivalent to 600 litres per hectare. After the test plants have been kept in the greenhouse under optimum growth conditions for about 3 weeks, the activity of the preparations is rated visually in comparison to untreated controls. For example, 100% activity=the plants have died, 0% activity=like control plants. As shown by the results, compounds of the general formula (I) of the invention, in post-emergence treatment, have very good herbicidal efficacy (90% to 100% herbicidal action) against harmful plants such as Abutilon theophrasti, Digitaria sanguinalis, Echinochloa crus-galli, Matricaria inodora, Poa annua, at an application rate of 1.28 kg of active substance per hectare.

Experiment [19] relates to POAAN. As to the kind of experiment: Post-emergence action against POAAN, 1.28 kg/ha. As to conditions: dosage 1280 g/ha, visual rating about 3 weeks after treatment vs untreated controls. It is filed as in vivo, Poa annua. The method, boiled down:
as §3

Experiment [20] has as its system SETVI. The experiment is described as follows: Post-emergence action against SETVI, 1.28 kg/ha. It is filed as in vivo, Setaria viridis. The following applies: dosage 1280 g/ha, visual rating about 3 weeks after treatment vs untreated controls. The protocol:
as §4

For experiment [21], the system named is ABUTH. The experiment is described as follows: Post-emergence action against ABUTH, 1.28 kg/ha. The format is in vivo, Abutilon theophrasti. As to conditions: dosage 1280 g/ha, visual rating about 3 weeks after treatment vs untreated controls (100% = plants died). Here is the method:
as §4

In experiment [22] the test system is MATIN. The experiment is described as follows: Post-emergence action against MATIN, 1.28 kg/ha. It is filed as in vivo, Tripleurospermum inodorum (Matricaria inodora). As to conditions: dosage 1280 g/ha, visual rating about 3 weeks after treatment vs untreated controls (100% = plants died). The method, boiled down: as §3
Experiment [23] relates to VERPE. The experiment is described as follows: Post-emergence action against VERPE, 1.28 kg/ha. The format is in vivo, Veronica persica. As to conditions: dosage 1280 g/ha, visual rating about 3 weeks after treatment vs untreated controls (100% = plants died). A digest of the protocol:
as §3

Experiment [24] has as its system ECHCG. As to the kind of experiment: Pre-emergence action against ECHCG, 1280 g/ha. It is filed as in vivo, Echinochloa crus-galli. The following applies: visual scoring after about 3 weeks vs untreated controls, 100% = plants have died, 0% = like control plants. A digest of the protocol: as §2
Experiment [25] relates to AMARE. The experiment is described as follows: Post-emergence action against AMARE, 1.28 kg/ha. The following applies: dosage 1280 g/ha, visual rating about 3 weeks after treatment vs untreated controls (100% = plants died). It is filed as in vivo, Amaranthus retroflexus. A digest of the protocol:
as §3

For experiment [26], the system named is STEME. The experiment is described as follows: Post-emergence action against STEME, 1.28 kg/ha. The format is in vivo, Stellaria media. The following applies: dosage 1280 g/ha, visual rating about 3 weeks after treatment vs untreated controls (100% = plants died). Here is the method:
as §4

Each structure is given as a SMILES string.

For `COC(=O)CNC(=O)C(F)Oc1nn(-c2ccccc2F)c(-c2ccc(F)nc2)c1Br` (stereo not shown) [Example X-014], the “Pre-emergence action at 320 g/ha against ALOMY in %” value in experiment [1] was 90%. In addition, in [2], the “Pre-emergence action against LOLRI in %” value came out at 90%. Moreover, the “Pre-emergence action against SETVI in %” value in [3] stood at 90%. Moreover, the “Pre-emergence action against AMARE in %” value in experiment [4] was 100%. In [5], the “Pre-emergence action against MATIN in %” value amounted to 90%. Besides, the “Pre-emergence action against VIOTR in %” value in experiment [6] is 100%.
As for `COC(=O)CN(C)C(=O)COc1nn(-c2ccccc2F)c(-c2ccc(F)nc2)c1Br` [Example X-030], the “Pre-emergence action at 320 g/ha against ALOMY in %” value in experiment [1] is 90%. The “Pre-emergence action against DIGSA in %” value in [7] is recorded as 100%. Besides, the “Pre-emergence action against SETVI in %” value in experiment [3] worked out at 80%. Besides, the “Pre-emergence action against AMARE in %” value in [4] was 90%. Moreover, the “Pre-emergence action against VIOTR in %” value in [6] is recorded as 90%.
With `O=C(O)C1CCN(C(=O)COc2nn(-c3ccccc3F)c(-c3cncc(F)c3)c2Br)CC1` [Example X-038], the “Pre-emergence action against DIGSA” value in experiment [8] was 90%. The “Pre-emergence action against LOLRI” value in experiment [9] stood at 90%. In experiment [10], the “Pre-emergence action against POAAN” value amounted to 100%. In addition, the “Pre-emergence action against SETVI” value in [11] is given as 100%. In addition, the “Pre-emergence action against AMARE” value in experiment [12] is 100%. In experiment [13], the “Pre-emergence action against MATIN” value is 90%. For the same compound, in experiment [14], the “Pre-emergence action against STEME” value was found to be 90%. In experiment [15], the “Pre-emergence action against VERPE” value was 90%. The “Post-emergence action against ALOMY” value in experiment [16] was found to be 90%. Also, the “Post-emergence action against DIGSA” value in [17] was determined as 90%. The “Post-emergence action against ECHCG” value in [18] is reported as 90%. The “Post-emergence action against POAAN” value in [19] was found to be 100%. The “Post-emergence action against SETVI” value in [20] was found to be 90%. Moreover, in [21], the “Post-emergence action against ABUTH” value came out at 90%. In addition, the “Post-emergence action against MATIN” value in [22] came out at 100%. For the same compound, in experiment [23], the “Post-emergence action against VERPE” value came out at 100%.
Consider `CCOC(=O)COc1nn(-c2cc(F)c(F)cc2F)c(-c2ccc(F)nc2)c1Cl` [VII-009], for which the “Pre-emergence action against ECHCG” value in experiment [24] was determined as 90%. Moreover, the “Pre-emergence action against LOLRI” value in experiment [9] was 100%. Moreover, the “Pre-emergence action against POAAN” value in experiment [10] is 100%. Besides, the “Pre-emergence action against SETVI” value in experiment [11] turned out to be 100%. Moreover, in experiment [12], the “Pre-emergence action against AMARE” value is 100%. In addition, the “Pre-emergence action against MATIN” value in experiment [13] turned out to be 100%. For the same compound, the “Pre-emergence action against STEME” value in [14] was determined as 100%. In addition, the “Pre-emergence action against VERPE” value in experiment [15] came out at 90%. In [18], the “Post-emergence action against ECHCG” value came out at 100%. In addition, the “Post-emergence action against POAAN” value in [19] is reported as 100%. In experiment [20], the “Post-emergence action against SETVI” value was 90%. Besides, the “Post-emergence action against ABUTH” value in experiment [21] was found to be 90%. Besides, the “Post-emergence action against AMARE” value in experiment [25] was determined as 100%. Further, the “Post-emergence action against MATIN” value in experiment [22] is 100%. The “Post-emergence action against STEME” value in experiment [26] was found to be 100%. Besides, the “Post-emergence action against VERPE” value in experiment [23] is 90%.
